Results published in patent US11135319B2, “Compounds useful as imaging agents of hypoxia” (CENTRE NATIONAL DE LA RECHERCHE SCIENTIFIQUE, priority 2017, dated 2021).

Experiments:
[1] = Determination of the partition coefficient (n-octanol/H2O, radioactivity counting); assay type: physicochemical; settings: ambient temperature, average of three measurements, read-out: Log P value
Experimental: Determination of the partition coefficient:
n-Octanol (1 mL) and H2O (1 mL) were mixed for 20 min at ambient temperature before adding 10 μL of radioactively labeled compound. The tube was vigorously agitated by a vortex mixer for 30 min at ambient temperature. Three aliquots of 100 μL were collected from each phase and counted in a Packard Cobra Gamma counter. Log P was calculated as follows: log P=log (concentration of radioactivity in the n-octanol phase/concentration of radioactivity in the aqueous phase). The values provided are an average of the three measurements carried out.

[2] = system: rhabdomyosarcoma tumor (hypoxia); assay: In vivo PET (TEP) imaging of hypoxia in the animal rhabdomyosarcoma model; settings: for SUVMax (average) / SUVMean (average): tumor to muscle
Experimental: The evaluations of the radio-tracers were carried out in the animal rhabdomyosarcoma model provided by Biomedical Magnetic Resonance Research Group (REMA)—Catholic University of Louvain (UCL)—Belgium according to Peeters et al. (Int J Radiat Oncol, 2015) in the comparative study of [^18F]HX-4, [^18F]FMISO and [^18F]FAZA. The in vivo imaging was carried out using an Inveon μTEP/μTDM camera (Siemens). The animals were handled under gaseous anesthesia using isoflurane (induction at 5%, maintenance between 1.5% and 2.5% in 70% N2O/30% O2). The body temperature of the animals was maintained above 37.5° C. while the rate of respiration was constantly monitored, in order to obtain stable anesthesia reproducible from one animal to another. A catheter was placed without surgery (Insight Autoguard 24 Ga) at the caudal vein in order to allow the administration of radio-tracers. TDM acquisition is systematically performed prior to TEP imaging and is used for corrections of attenuation and diffusion of photos as well as for obtaining anatomical data. Acquisitions and reconstructions were performed with a coincidence time of 3.4 ns, an energy window of 350 to 650 keV, the OSEM3D-MAP reconstruction algorithm (respectively 2 and 18 iterations) with the “fastMAP” option, uniform variance and a required resolution of 2.26 mm. 128×128×159 pixels per image, with a voxel size of 0.776×0.776×0.796 mm^3. The images were normalized in SUV (Standardized Uptake Value) and analyzed with the PMOD (3.6 PMODTechnologies) software, by manual delimitation of the volumes of interest (VOIs) “entire tumor” and “muscle” and simultaneously using the 2 imaging modes.
The animals were imaged for 180 consecutive minutes starting with the injection of the radiotracer [^18F]AEL-3156 (23±3 MBq) or [^18F]FMISO (18±3 MBq) coinciding with the beginning of TEP acquisition. The 180 min post-injection time is known to be optimal for this animal model, for obtaining imaging of hypoxia with TEP tracers such as [^18F]FMISO and [^18F]HX4. After TEP imaging and before waking, the animals systematically received an intraperitoneal injection of saline solution (2 mL) in order to rehydrate them.

SMILES | logP at 30 min [1] | SUVMax (average) ([2]; 20-30 min of acquisition) | SUVMean (average) ([2]; 20-30 min of acquisition) | SUVMax (average) ([2]; 40-60 min of acquisition) | SUVMean (average) ([2]; 40-60 min of acquisition) | SUVMax (average) ([2]; 160-180 min of acquisition) | SUVMean (average) ([2]; 160-180 min of acquisition) | tumor to muscle ratio in SUVmax ([2]; at 20-30 min of acquisition) | tumor to muscle ratio in SUVmean ([2]; at 20-30 min of acquisition) | time for which the optimal tumor to muscle ratio remains constant ([2]; post-injection) | tumor to muscle ratio, times lower than [^18F]AEL-3156 ([2]; at 20-30 min of acquisition) | time after which the optimal tumor to muscle ratio is achieved ([2]; of acquisition)
O=[N+]([O-])c1nccn1Cn1cc(CC(CCC[18F])S(=O)(=O)O)nn1 (centres unmarked) [[^18F]AEL-3156] | -2.9 | 5.20 | 2.94 | 5.10 | 2.93 | 2.90 | 1.51 | 5 | 3 | at least 60 min |  | 
O=[N+]([O-])c1nccn1CC(O)C[18F] (centres unmarked) [[^18F]FMISO] |  | 2.04 | 1.00 | 3.64 | 1.45 | 5.42 | 3.42 | 1.7 | 1 |  | 3 times | 180 min
